Assay results as given in patent US20230000842A1, “METHODS OF TREATING CARTILAGE DISORDERS THROUGH INHIBITION OF CLK AND DYRK” (SAMUMED, LLC, priority 2019, published 2023).

Columns and labels:
[1] = tested on: Wnt pathway activity (SW480 colon carcinoma cells stably expressing the Sp5-Luc reporter); assay: Wnt pathway activity screening assay (Sp5-Luc reporter gene assay); conditions: Homo sapiens, SW480, Table 4; SW480 cells stably expressing Sp5-Luc reporter, 10-point dose-response from 10 μM, 36 to 48 hours
[2] = target: CLK3 kinase (Homo sapiens, UniProt P49761); assay: CLK3 kinase activity assay (Z-lyte FRET); format: biochemical; conditions: Z-lyte Ser/Thr 18 peptide, 156 μM ATP, 1 h at room temperature;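 also: kinase activity read as coumarin/fluorescein emission ratio by FRET, unphosphorylated peptide as 0% and phosphorylated peptide as 100% control, values from non-linear regression of dose-response curves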
[3] = target: CLK2 kinase (Homo sapiens, UniProt P49760); assay: CLK2 kinase activity assay (Z-lyte FRET); format: biochemical; conditions: Z-lyte Ser/Thr 6 peptide, 60 μM ATP, 1 h at room temperature;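 also: FRET read-out as coumarin to fluorescein emission ratio, unphosphorylated peptide as 0% and phosphorylated peptide as 100% controls, duplicate reactions, non-linear regression fit of dose-response curves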
[4] = tested on: MMP-3 levels in supernatant of chondrocytes stimulated with IL1-β; assay: Chondrocyte protection assay compound screening (MMP-3 LANCE Ultra); format: cell-based, human; conditions: Homo sapiens, Chondrocyte, IL1-β 10 ng/mL overnight, 11-point curves from 3 μM to 0.05 nM; for Emax: read-out: Maximum % Inhibition
Protocol: Human Chondrocyte Cell Culture: Primary human chondrocytes were purchased from Lonza (Walkersville, Md.) and expanded in Chondrocyte Growth Media (CGM, Lonza). Cells between passage 2 and 5 were used for the experiments.
Chondrocytes were plated at 8,000 cells/well in 40 μL/well Chondrocyte Differentiation Medium (Lonza; 500 mL Basal Medium, 25 mL FBS, 0.5 mL GA-1000, 1 mL R3-IGF, 2.5 mL bFGF, 0.5 mL Transferrin, and 1 mL Insulin). After 2 hours of incubation at 37° C. and 5% CO2, IL1-β (Peprotech, Rocky Hill, N.J.) was added to a final concentration of 10 ng/mL. 11 wells in 1 row were left unstimulated for normalization and calculating EC50 values. Cells were incubated at 37° C. and 5% CO2 overnight. Assay plates are spun, 25 μl of supernatant media was collected using (S2 pipettor, Apricot Designs). Cells were lysed using 10 μL of (Cell Titer-Glo, Promega). Luminescent signal detected using an En Vision Multilabel reader (Perkin Elmer). MMP-3 levels were measured in supernatant. Supernatant diluted 1:7 in DMEM. MMP-3 levels in the supernatant were measured using MMP-3 LANCE Ultra detection kit (Perkin Elmer). Briefly, 5 μL of diluted supernatant was transferred to low-volume 384 well plates using (S2 pipettor, Apricot Designs). A standard curve was prepared using MMP-3 analyte (range […]). 1.7 μL of 8× mix of Eu-labelled anti-MMP-3 antibody and ULight labelled anti-MMP-3 antibody was added to the plates using Mantis Liquid handler (Formulatrix). Plates were incubated overnight at room temperature. LANCE signal was detected using an EnVision Multilabel reader (Perkin Elmer), equipped with TR-FRET using excitation wavelength of 320 nm and two emission wavelengths of 615 nm and 665 nm. Data was analyzed according to the kit protocol, using the ratio of […] and the standard curve values were used to calculate the amount of MMP3 in the […] (in pg/ml). The normalized averages (fold change over IL1-β stimulated) for each compound concentration were calculated. EC50 and maximum % inhibition values were calculated using the dose-response nonlinear regression curve-fit in Dotmatics.

Chain of CLK2 kinase (P49760 whole entry): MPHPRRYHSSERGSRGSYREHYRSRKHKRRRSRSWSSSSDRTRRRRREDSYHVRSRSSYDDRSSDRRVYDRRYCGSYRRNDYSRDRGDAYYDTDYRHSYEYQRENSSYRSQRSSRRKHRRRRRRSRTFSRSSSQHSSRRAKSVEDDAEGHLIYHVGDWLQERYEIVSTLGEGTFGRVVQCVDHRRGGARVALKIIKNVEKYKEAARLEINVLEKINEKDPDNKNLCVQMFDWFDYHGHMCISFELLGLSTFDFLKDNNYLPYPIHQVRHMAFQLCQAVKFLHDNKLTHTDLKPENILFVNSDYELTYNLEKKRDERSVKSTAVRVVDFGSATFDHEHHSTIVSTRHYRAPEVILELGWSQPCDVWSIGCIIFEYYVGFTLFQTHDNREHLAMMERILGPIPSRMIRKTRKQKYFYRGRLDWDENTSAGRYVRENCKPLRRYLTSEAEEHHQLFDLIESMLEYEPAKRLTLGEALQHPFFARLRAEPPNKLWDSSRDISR
Chain of CLK3 kinase (P49761 whole entry): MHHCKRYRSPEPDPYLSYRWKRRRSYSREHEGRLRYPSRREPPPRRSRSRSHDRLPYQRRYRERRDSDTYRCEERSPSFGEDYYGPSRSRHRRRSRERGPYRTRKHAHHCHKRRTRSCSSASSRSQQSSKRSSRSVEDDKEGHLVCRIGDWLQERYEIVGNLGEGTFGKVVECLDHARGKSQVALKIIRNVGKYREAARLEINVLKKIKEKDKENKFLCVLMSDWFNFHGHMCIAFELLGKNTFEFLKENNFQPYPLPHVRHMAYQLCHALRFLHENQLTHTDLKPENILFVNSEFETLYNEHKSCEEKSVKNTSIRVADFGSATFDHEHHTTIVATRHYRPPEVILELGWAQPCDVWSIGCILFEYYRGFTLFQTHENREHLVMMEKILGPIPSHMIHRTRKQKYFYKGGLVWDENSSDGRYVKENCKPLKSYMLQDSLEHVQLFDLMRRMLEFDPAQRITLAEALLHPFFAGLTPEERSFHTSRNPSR

For `Cc1[nH]nc(C(=O)Nc2ccc(CN3CCCC3)cc2)c1/C=C/c1cccnc1` [compound 18], the EC50 [1] was 2150 nM, the EC50 [2] was 3990 nM and the EC50 [3] was 20 nM. For the same molecule, the EC50 [4] was 1050 nM and the Emax [4] was 25.5%.
`O=C(Nc1ccc(OCCN2CCCC2)cc1)c1n[nH]cc1/C=C/c1cccnc1` [compound 19] gave an EC50 [1] of 1850 nM, an EC50 [2] of 967 nM and an EC50 [3] of 6 nM. For the same molecule, the EC50 [4] was ≥ 3000 nM and the Emax [4] was 31.1%.
`O=C(Nc1ccc(N2CCNCC2)nc1)c1n[nH]cc1/C=C/c1cccnc1` [compound 20] showed an EC50 [1] of 1650 nM, an EC50 [2] of 563 nM and an EC50 [3] of 5 nM. It also gave an EC50 [4] of 0.2 nM and an Emax [4] of 72.6%.
In the case of `CN1CCC(Oc2ccc(NC(=O)c3n[nH]cc3/C=C/c3cccnc3)cn2)CC1` [compound 21], the EC50 [1] is reported as 964 nM, the EC50 [2] is reported as 733 nM and the EC50 [3] is reported as 4 nM. The EC50 [4] was ≥ 3000 nM and the Emax [4] was 92.6%.
For `Cc1[nH]nc(C(=O)Nc2ccc(OC3CCN(C)CC3)nc2)c1/C=C/c1cccnc1` [compound 22], the EC50 [1] was > 10000 nM, the EC50 [2] was 2330 nM and the EC50 [3] was 7 nM. For the same molecule, the EC50 [4] was 17.8 nM and the Emax [4] was 64.6%.
For `COc1ccc(NC(=O)c2n[nH]cc2/C=C/c2cncc(CN3CCCCC3)c2)cn1` [compound 24], the EC50 [1] was 1450 nM, the EC50 [2] was 1250 nM and the EC50 [3] was 26 nM. For the same molecule, the EC50 [4] was ≥ 3000 nM and the Emax [4] was 74.1%.
With `O=C(Nc1ccc(C2CCC(F)(F)C2)nc1)c1n[nH]cc1C#Cc1cccnc1` (centres unmarked) [compound 27] the EC50 [1] was > 10000 nM, the EC50 [2] was > 10000 nM and the EC50 [3] was 32 nM. The EC50 [4] was ≥ 3000 nM and the Emax [4] was 88.5%.
Work on `Cc1n[nH]c2ccc(-c3cncc(N4CC(C)(N)C4)n3)cc12` [compound 36] yielded an EC50 [1] of 3510 nM, an EC50 [2] of 3400 nM and an EC50 [3] of 70 nM. It also gave an EC50 [4] of 1610 nM.
`CCC1(N)CN(c2cncc(-c3ccc4[nH]nc(C)c4c3)n2)C1` [compound 37] showed an EC50 [1] of 1730 nM, an EC50 [2] of 5500 nM and an EC50 [3] of 43 nM. The EC50 [4] was ≥ 3000 nM and the Emax [4] was 55.1%.
With `Cc1n[nH]c2ccc(-c3cncc(N4CCC[C@H](N)C4)n3)cc12` [compound 38] the EC50 [1] was 1430 nM, the EC50 [2] was 8010 nM and the EC50 [3] was 35 nM. The EC50 [4] was ≥ 3000 nM and the Emax [4] was 97.5%.
Molecule `Cc1n[nH]c2ccc(-c3cncc(N4CCC(O)CC4)n3)cc12` [compound 39] has an EC50 [1] of 1900 nM, an EC50 [2] of 4260 nM and an EC50 [3] of 25 nM. It also gave an EC50 [4] of 47.8 nM and an Emax [4] of 60.8%.
`Cc1n[nH]c2ccc(-c3cncc(N[C@H]4CC[C@H](O)CC4)n3)cc12` [compound 43] was tested, and the EC50 [1] was 95 nM, the EC50 [2] was 309 nM and the EC50 [3] was 1 nM. For the same molecule, the EC50 [4] was ≥ 3000 nM and the Emax [4] was 41.9%.
`Cc1n[nH]c2ccc(-c3cncc(NCC4(F)CNC4)n3)cc12` [compound 48] showed an EC50 [1] of 780 nM, an EC50 [2] of 1100 nM and an EC50 [3] of 3 nM. For the same molecule, the EC50 [4] was 2270 nM and the Emax [4] was 100%.
`Cc1n[nH]c2ccc(-c3cncc(OCC4(F)CNC4)n3)cc12` [compound 49] showed an EC50 [1] of 3250 nM, an EC50 [2] of 2200 nM and an EC50 [3] of 6 nM. The EC50 [4] was 3.5 nM and the Emax [4] was 66.1%.
In the case of `Cc1n[nH]c2ccc(-c3cncc(OC[C@@H]4Cc5ccccc5CN4)n3)cc12` [compound 50], the EC50 [1] is reported as 2810 nM, the EC50 [2] is reported as 5730 nM and the EC50 [3] is reported as 27 nM. For the same molecule, the EC50 [4] was ≥ 3000 nM and the Emax [4] was 44.4%.
With `Cc1n[nH]c2ccc(-c3cc(OC[C@H](N)Cc4ccccc4)cnn3)cc12` [compound 53] the EC50 [1] was 1150 nM, the EC50 [2] was 3490 nM and the EC50 [3] was 19 nM. The EC50 [4] was ≥ 3000 nM and the Emax [4] was 74.9%.
`O=C(Nc1cccnc1)c1n[nH]c2ncc(-c3cccnc3)cc12` [compound 61] was tested, and the EC50 [1] was 795 nM, the EC50 [2] was 916 nM and the EC50 [3] was 8 nM. It also gave an EC50 [4] of 2.2 nM and an Emax [4] of 69.2%.
In the case of `O=C(Nc1ccc(CN2CCCC2)cc1)c1n[nH]c2ccc(-c3cccnc3F)cc12` [compound 65], the EC50 [1] is reported as 196 nM, the EC50 [2] is reported as 47 nM and the EC50 [3] is reported as 1 nM. For the same molecule, the EC50 [4] was ≥ 3000 nM and the Emax [4] was 98.1%.
